Where a name gives a salt, the structure may show the parent alone. Read-outs that look alike come from different tables or passages of the source.
Test system: Phosphorylated Ribosomal Protein S6 (RPS6) in THP-1 cells
Assay: THP-1 RPS6 ELISA Assay
Type: cell-based, Human
Experimental: To measure the Phosphorylated Ribosomal Protein S6 (RPS6) in cell lysates, THP-1 cells (Human Acute Monocytic Leukemia) are purchased from ATCC (Manassas, Va.) and maintained in RPMI with 10% FBS (Gibco/Life Technologies, Carlsbad, Calif.). For the assay, THP-1 cells are serum starved overnight in RPMI, then plated in RPMI (2×10^5 cells/well in 90 μL) into 96-well flat-bottom tissue culture treated plates (Corning, Corning, N.Y.), in the presence or absence of a concentration range of test compounds. Covered plates are incubated for 2 hours at 37° C., 5% CO2 then treated with or without 10 nM MCP-1(MYBioSource, San Diego, Calif.) for 15 minutes at 37° C., 5% CO2. Plates are centrifuged at 1600 RPM and supernatants are removed. Cells are lysed in Lysis Buffer (Cell Signaling, Danvers, Mass.) with Protease Inhibitor (Calbiochem/EMD, Germany), PMSF (Sigma, St Louis Mo.), HALTS (Thermo Fisher, Rockford, Ill.) for 30 min on wet ice. Cell lysates are frozen at −80 OC before testing. The lysates are tested in the Human/Mouse/Rat Phospho-RPS6 ELISA (R&D Systems, Inc. Minn, Minn.). The plate is measured using a microplate reader (SpectraMax M5—Molecular Devices, LLC Sunnyvale, Calif.) set to 450 nm with a wavelength correction of 540. IC50 determination is performed by fitting the curve of inhibitor percent inhibition versus the log of the inhibitor concentration using the GraphPad Prism 5.0 software.

[1] = Homo sapiens, Table A3, THP-1 cells, 10 nM MCP-1, read-out: PI3Kγ_THP1_RPS6_ELISA IC50
[2] = Homo sapiens, Table A1, THP-1 cells, 10 nM MCP-1, read-out: PI3Kγ_THP1_RPS6_ELISA IC50
[3] = Homo sapiens, Table A2, THP-1 cells, 10 nM MCP-1, read-out: PI3Kγ_THP1_RPS6_ELISA IC50
[4] = Table A1, THP-1 cells, 10 nM MCP-1, read-out: PI3Kγ_THP1_RPS6_ELISA IC50
[5] = Homo sapiens, Table A4, THP-1 cells, 10 nM MCP-1, cells given with + symbol, read-out: PI3Kγ_THP1_RPS6_ELISA IC50

Cc1ccc(C(O)(C(N)=O)C(F)F)cc1-c1cnc(N)c(-c2cnn(C)n2)n1 (stereo not shown) [Example 101, 2-(3-(5-amino-6-(2-methyl-2H-1,2,3-triazol-4-yl)pyrazin-2-yl)-4-methylphenyl)-3,3-difluoro-2-hydroxypropanamide]
IC50 [1]: < 100 nM

Cc1ccc(C(O)(C(N)=O)C(F)(F)F)cc1-c1cnc(N)c(-c2ccnn2C)n1 (stereo not shown) [Example 69, 2-(3-(5-Amino-6-(1-methyl-1H-pyrazol-5-yl)pyrazin-2-yl)-4-methylphenyl)-3,3,3-trifluoro-2-hydroxypropanamide trifluoroacetate]
IC50 [1]: < 100 nM

Cc1ccc(C(O)(C(N)=O)C(F)F)cc1-c1cnc(N)c(C(=O)NC(C)(C)CO)n1 (stereo not shown) [Example 35, 3-amino-6-(5-(1-amino-3,3-difluoro-2-hydroxy-1-oxopropan-2-yl)-2-methylphenyl)-N-(1-hydroxy-2-methylpropan-2-yl)pyrazine-2-carboxamide]
IC50 [2]: < 100 nM

COc1cc(C#Cc2nc(-c3cc(C(O)(C(N)=O)C(F)(F)F)ccc3C)cnc2N)cc(OC)c1 (stereo not shown) [Example 60, 2-(3-(5-amino-6-((3,5-dimethoxyphenyl)ethynyl)pyrazin-2-yl)-4-methylphenyl)-3,3,3-trifluoro-2-hydroxypropanamide]
IC50 [3]: < 100 nM

Cc1ccc(C(O)(C(N)=O)C(F)(F)F)cc1-c1cnc(N)c(N2CCN(C(=O)c3ccco3)CC2)n1 (stereo not shown) [Example 127, 2-(3-(5-amino-6-(4-(furan-2-carbonyl)piperazin-1-yl)pyrazin-2-yl)-4-methylphenyl)-3,3,3-trifluoro-2-hydroxypropanamide trifluoroacetate]
IC50 (Homo sapiens, THP-1, read-out: PI3Kγ_THP1_RPS6_ELISA IC50 (nM)): < 100 nM

Cc1ccc(C(O)(C(N)=O)C(F)(F)F)cc1-c1cnc(N)c(-n2cccn2)n1 (stereo not shown) [Example 93, 2-(3-(5-Amino-6-(1H-pyrazol-1-yl)pyrazin-2-yl)-4-methylphenyl)-3,3,3-trifluoro-2-hydroxypropanamide]
IC50 [1]: < 100 nM

Cc1ccc(C(O)(C(N)=O)C(F)(F)F)cc1-c1cnc(N)c(-c2ccc(B(O)O)cc2)n1 (stereo not shown) [Example 97, (4-(3-Amino-6-(5-(3-amino-1,1,1-trifluoro-2-hydroxy-3-oxopropan-2-yl)-2-methylphenyl)pyrazin-2-yl)phenyl)boronic acid]
IC50 [1]: < 500 nM

Cc1ccc(C(O)(C(N)=O)C(F)(F)F)cc1-c1cnc(N)c(C(=O)NCC(O)C(F)(F)F)n1 (single isomer, unassigned) [Example 43A, 3-amino-6-(5-(3-amino-1,1,1-trifluoro-2-hydroxy-3-oxopropan-2-yl)-2-methylphenyl)-N-(3,3,3-trifluoro-2-hydroxypropyl)pyrazine-2-carboxamide]
IC50 [2]: < 100 nM

Cc1ccc(C(O)(C(N)=O)C(F)(F)F)cc1-c1cnc(N)c(C(=O)NCC(O)C(F)(F)F)n1 (single isomer, unassigned) [Example 43B, 3-amino-6-(5-(3-amino-1,1,1-trifluoro-2-hydroxy-3-oxopropan-2-yl)-2-methylphenyl)-N-(3,3,3-trifluoro-2-hydroxypropyl)pyrazine-2-carboxamide]
IC50 [4]: < 100 nM

Cc1ccc([C@@](O)(C(N)=O)C(F)(F)F)cc1-c1cnc(N)c(N2CCN(C(=O)C3CC3)CC2)n1 [Example 115, (R)-2-(3-(5-amino-6-(4-(cyclopropanecarbonyl)piperazin-1-yl)pyrazin-2-yl)-4-methylphenyl)-3,3,3-trifluoro-2-hydroxypropanamide trifluoroacetate]
IC50 [5]: < 100 nM

Cc1ccc(C(O)(C(N)=O)C(F)(F)F)cc1-c1cnc(N)c(C(=O)NC23CC(C#N)(C2)C3)n1 (stereo not shown) [Example 23, 3-amino-6-(5-(3-amino-1,1,1-trifluoro-2-hydroxy-3-oxopropan-2-yl)-2-methylphenyl)-N-(3-cyanobicyclo[1.1.1]pentan-1-yl)pyrazine-2-carboxamide trifluoroacetate]
IC50 [2]: < 100 nM

Cc1ccc(C(O)(C(N)=O)C(F)(F)F)cc1-c1cnc(N)c(C#CC(C)(C)O)n1 (stereo not shown) [Example 50, 2-(3-(5-amino-6-(3-hydroxy-3-methylbut-1-ynyl)pyrazin-2-yl)-4-methylphenyl)-3,3,3-trifluoro-2-hydroxypropanamide]
IC50 [3]: < 100 nM

CNC(=O)C(O)(c1ccc(C)c(-c2cnc(N)c(-n3cncn3)n2)c1)C(F)(F)F (stereo not shown) [Example 94, 2-(3-(5-Amino-6-(1H-1,2,4-triazol-1-yl)pyrazin-2-yl)-4-methylphenyl)-3,3,3-trifluoro-2-hydroxy-N-methylpropanamide trifluoroacetate]
IC50 [1]: < 100 nM

Cc1ccc(C(O)(C(N)=O)C(F)(F)F)cc1-c1cnc(N)c(N2CCN(c3ccccc3C#N)CC2)n1 (stereo not shown) [Example 122, 2-(3-(5-amino-6-(4-(2-cyanophenyl)piperazin-1-yl)pyrazin-2-yl)-4-methylphenyl)-3,3,3-trifluoro-2-hydroxypropanamide trifluoroacetate]
IC50 [5]: < 100 nM

Cc1ccc(C(O)(C(N)=O)C(F)(F)F)cc1-c1cnc(N)c(C(=O)NC2CC3CCC2O3)n1 (single isomer, unassigned) [Example 30, 3-amino-6-(5-(3-amino-1,1,1-trifluoro-2-hydroxy-3-oxopropan-2-yl)-2-methylphenyl)-N-(7-oxabicyclo[2.2.1]heptan-2-yl)pyrazine-2-carboxamide]
IC50 [4]: < 100 nM

Cc1ccc(C(O)(C(N)=O)C(F)(F)F)cc1-c1cnc(N)c(C#Cc2cncn2C)n1 (stereo not shown) [Example 53, 2-(3-(5-amino-6-((1-methyl-1H-imidazol-5-yl)ethynyl)pyrazin-2-yl)-4-methylphenyl)-3,3,3-trifluoro-2-hydroxypropanamide]
IC50 [3]: < 500 nM

Cc1ccc(C(O)(C(N)=O)C(F)(F)F)cc1-c1cnc(N)c(C#CC(C)(O)C(C)C)n1 (stereo not shown) [Example 62, 2-(3-(5-amino-6-(3-hydroxy-3,4-dimethylpent-1-ynyl)pyrazin-2-yl)-4-methylphenyl)-3,3,3-trifluoro-2-hydroxypropanamide]
IC50 [3]: < 100 nM

Cc1ccc(C(O)(C(N)=O)C(F)(F)F)cc1-c1cnc(N)c(C#Cc2ccc(CC#N)cc2)n1 (stereo not shown) [Example 59, 2-(3-(5-amino-6-((4-(cyanomethyl)phenyl)ethynyl)pyrazin-2-yl)-4-methylphenyl)-3,3,3-trifluoro-2-hydroxypropanamide]
IC50 [3]: < 100 nM

Cc1ccc(C(O)(C(N)=O)C(F)(F)F)cc1-c1cnc(N)c(N2CCN(c3cncs3)CC2)n1 (stereo not shown) [Example 120, 2-(3-(5-amino-6-(4-(thiazol-5-yl)piperazin-1-yl)pyrazin-2-yl)-4-methylphenyl)-3,3,3-trifluoro-2-hydroxypropanamide trifluoroacetate]
IC50 [5]: < 100 nM

CC[C@@H](CC#N)NC(=O)c1nc(-c2cc(C(O)(C(N)=O)C(F)(F)F)ccc2C)cnc1N (stereo partly drawn) [Example 20, 3-amino-6-(5-(3-amino-1,1,1-trifluoro-2-hydroxy-3-oxopropan-2-yl)-2-methylphenyl)-N-((S)-1-cyanobutan-2-yl)pyrazine-2-carboxamide trifluoroacetate]
IC50 [2]: < 100 nM

Cc1ccc(C(O)(C(N)=O)C(F)(F)F)cc1-c1cnc(N)c(C(=O)N[C@@H]2CCCOC2)n1 (stereo partly drawn) [Example 9, 3-amino-6-(5-(3-amino-1,1,1-trifluoro-2-hydroxy-3-oxopropan-2-yl)-2-methylphenyl)-N-((R)-tetrahydro-2H-pyran-3-yl)pyrazine-2-carboxamide trifluoroacetate]
IC50 [2]: < 100 nM

Cc1ccc(C(O)(C(N)=O)C(F)(F)F)cc1-c1cnc(N)c(N2CCN(c3nccnc3C#N)CC2)n1 (stereo not shown) [Example 128, 2-(3-(5-amino-6-(4-(3-cyanopyrazin-2-yl)piperazin-1-yl)pyrazin-2-yl)-4-methylphenyl)-3,3,3-trifluoro-2-hydroxypropanamide trifluoroacetate]
IC50 [5]: < 100 nM

Cc1ccc(C(O)(C(N)=O)C(F)(F)F)cc1-c1cnc(N)c(C(=O)N[C@H]2CCCOC2)n1 (stereo partly drawn) [Example 10, 3-amino-6-(5-(3-amino-1,1,1-trifluoro-2-hydroxy-3-oxopropan-2-yl)-2-methylphenyl)-N-((S)-tetrahydro-2H-pyran-3-yl)pyrazine-2-carboxamide trifluoroacetate]
IC50 [2]: < 100 nM

Cc1ccc(C(O)(C(N)=O)C(F)(F)F)cc1-c1cnc(N)c(C(=O)NC2CC3CCC2O3)n1 (single isomer, unassigned) [Example 29, 3-amino-6-(5-(3-amino-1,1,1-trifluoro-2-hydroxy-3-oxopropan-2-yl)-2-methylphenyl)-N-(7-oxabicyclo[2.2.1]heptan-2-yl)pyrazine-2-carboxamide]
IC50 [2]: < 100 nM

Cc1ccc(C(O)(C(N)=O)C(F)(F)F)cc1-c1cnc(N)c(-c2cnc(C3CC3)s2)n1 (stereo not shown) [Example 84, 2-(3-(5-amino-6-(2-cyclopropylthiazol-5-yl)pyrazin-2-yl)-4-methylphenyl)-3,3,3-trifluoro-2-hydroxypropanamide trifluoroacetate]
IC50 [1]: < 500 nM

Source: US11046658B2, “Aminopyrazine derivatives as PI3K-γ inhibitors” (Incyte Corporation, priority 2018, dated 2021)
